In patent US12187742B2 (XRAD Therapeutics, Inc., priority 2018, dated 2025) one finds IC50 data, which are given here for 25 compounds.

As usually defined, the IC50 is the midpoint of a concentration-inhibition curve. A high value points to a need for much substance.

Structures can show the parent of a compound that is named as a salt.

Sequence of ATM (Q13315 whole entry): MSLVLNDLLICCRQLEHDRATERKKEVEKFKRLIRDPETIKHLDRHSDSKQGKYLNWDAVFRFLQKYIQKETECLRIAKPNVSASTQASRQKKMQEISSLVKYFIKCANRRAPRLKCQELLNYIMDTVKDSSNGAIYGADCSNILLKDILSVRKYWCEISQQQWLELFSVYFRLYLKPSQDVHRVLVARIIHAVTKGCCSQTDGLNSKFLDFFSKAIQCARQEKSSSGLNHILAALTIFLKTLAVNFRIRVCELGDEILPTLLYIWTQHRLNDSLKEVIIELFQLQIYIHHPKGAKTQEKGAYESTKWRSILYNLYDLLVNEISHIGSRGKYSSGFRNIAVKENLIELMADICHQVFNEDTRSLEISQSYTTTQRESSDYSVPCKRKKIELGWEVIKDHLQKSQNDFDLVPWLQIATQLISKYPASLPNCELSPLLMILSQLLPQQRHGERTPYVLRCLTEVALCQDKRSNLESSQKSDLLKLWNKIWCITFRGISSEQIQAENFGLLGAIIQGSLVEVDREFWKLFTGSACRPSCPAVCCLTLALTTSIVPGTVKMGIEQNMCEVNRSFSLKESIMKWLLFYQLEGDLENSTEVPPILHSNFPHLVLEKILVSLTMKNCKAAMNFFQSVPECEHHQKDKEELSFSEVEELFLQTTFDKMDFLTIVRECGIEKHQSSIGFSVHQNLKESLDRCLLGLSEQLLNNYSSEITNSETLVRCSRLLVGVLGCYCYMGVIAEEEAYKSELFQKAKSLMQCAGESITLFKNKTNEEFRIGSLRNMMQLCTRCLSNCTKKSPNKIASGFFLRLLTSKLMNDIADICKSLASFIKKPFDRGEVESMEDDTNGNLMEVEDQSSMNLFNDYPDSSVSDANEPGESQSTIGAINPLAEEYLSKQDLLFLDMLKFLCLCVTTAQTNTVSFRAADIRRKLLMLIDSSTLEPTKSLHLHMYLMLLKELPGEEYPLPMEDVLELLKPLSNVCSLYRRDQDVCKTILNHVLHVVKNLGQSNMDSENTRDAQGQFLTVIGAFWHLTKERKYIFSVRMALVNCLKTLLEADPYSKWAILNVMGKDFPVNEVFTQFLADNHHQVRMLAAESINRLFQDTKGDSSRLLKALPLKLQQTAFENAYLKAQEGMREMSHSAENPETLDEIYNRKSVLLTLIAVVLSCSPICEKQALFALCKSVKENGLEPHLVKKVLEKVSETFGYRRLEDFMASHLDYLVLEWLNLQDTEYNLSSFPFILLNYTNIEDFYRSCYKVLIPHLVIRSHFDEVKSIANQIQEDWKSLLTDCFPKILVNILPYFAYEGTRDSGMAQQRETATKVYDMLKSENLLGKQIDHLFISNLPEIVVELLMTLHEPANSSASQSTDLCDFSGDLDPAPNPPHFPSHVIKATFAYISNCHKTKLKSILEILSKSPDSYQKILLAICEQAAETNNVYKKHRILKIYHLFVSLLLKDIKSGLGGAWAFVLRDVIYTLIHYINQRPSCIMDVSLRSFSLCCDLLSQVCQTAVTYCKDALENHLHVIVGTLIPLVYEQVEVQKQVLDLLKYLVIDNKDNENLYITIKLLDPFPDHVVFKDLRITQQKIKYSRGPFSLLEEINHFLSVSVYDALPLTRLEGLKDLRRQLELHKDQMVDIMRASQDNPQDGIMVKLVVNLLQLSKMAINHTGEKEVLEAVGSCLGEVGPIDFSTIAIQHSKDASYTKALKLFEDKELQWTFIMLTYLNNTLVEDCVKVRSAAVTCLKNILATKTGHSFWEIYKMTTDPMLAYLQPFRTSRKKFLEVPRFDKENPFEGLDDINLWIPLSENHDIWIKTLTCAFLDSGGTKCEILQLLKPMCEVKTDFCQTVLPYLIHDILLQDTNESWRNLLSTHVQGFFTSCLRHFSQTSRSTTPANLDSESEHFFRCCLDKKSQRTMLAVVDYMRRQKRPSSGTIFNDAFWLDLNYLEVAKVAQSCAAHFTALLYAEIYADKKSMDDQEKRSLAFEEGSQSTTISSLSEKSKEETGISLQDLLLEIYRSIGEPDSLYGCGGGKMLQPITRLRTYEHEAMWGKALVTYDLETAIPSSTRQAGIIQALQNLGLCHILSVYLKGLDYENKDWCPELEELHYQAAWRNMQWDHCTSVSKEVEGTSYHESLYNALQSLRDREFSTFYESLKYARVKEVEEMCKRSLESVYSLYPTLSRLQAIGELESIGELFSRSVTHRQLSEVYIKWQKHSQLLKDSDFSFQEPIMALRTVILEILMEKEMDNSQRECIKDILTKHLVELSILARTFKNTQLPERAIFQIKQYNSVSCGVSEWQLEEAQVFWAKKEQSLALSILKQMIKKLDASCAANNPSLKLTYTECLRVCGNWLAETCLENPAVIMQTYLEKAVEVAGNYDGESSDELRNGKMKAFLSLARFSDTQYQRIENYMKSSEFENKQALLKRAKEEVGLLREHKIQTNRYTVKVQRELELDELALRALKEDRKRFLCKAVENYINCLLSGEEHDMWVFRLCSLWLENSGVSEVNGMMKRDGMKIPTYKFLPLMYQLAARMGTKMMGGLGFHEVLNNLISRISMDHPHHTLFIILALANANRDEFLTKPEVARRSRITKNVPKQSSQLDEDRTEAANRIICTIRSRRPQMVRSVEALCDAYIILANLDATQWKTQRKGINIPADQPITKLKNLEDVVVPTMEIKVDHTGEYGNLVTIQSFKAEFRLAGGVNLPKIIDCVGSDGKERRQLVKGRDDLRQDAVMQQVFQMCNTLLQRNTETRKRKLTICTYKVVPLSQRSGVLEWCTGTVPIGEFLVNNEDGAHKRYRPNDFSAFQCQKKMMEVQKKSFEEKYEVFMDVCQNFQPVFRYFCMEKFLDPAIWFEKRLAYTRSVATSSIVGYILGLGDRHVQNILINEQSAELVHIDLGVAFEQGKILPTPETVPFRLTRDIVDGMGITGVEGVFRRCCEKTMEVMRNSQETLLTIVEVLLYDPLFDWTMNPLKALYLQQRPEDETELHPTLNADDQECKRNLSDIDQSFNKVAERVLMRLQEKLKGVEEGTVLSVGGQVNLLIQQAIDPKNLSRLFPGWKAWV

One test addresses ATM (Homo sapiens (Human), UniProt Q13315). Kind of test: ATM in Cell Western Assay (pKAP1 in etoposide-treated MCF-7 cells). The conditions noted are these: MCF-7 cells, etoposide 100 μM, 1 hr, pKAP1 readout. It counts as cell-based. In short, it runs like this:
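After paraformaldehyde fixation and Triton X-100 permeabilization, immunostained plates were read by infrared scanning (ODYSSEY CLx). Compound was given as 10 doses, 3-fold dilutions from a 1 μM final top concentration.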
`CN(C)CCCOc1ncc(-c2ccc3ncc4c(c3c2)C2(CCC2)C(=O)N4C)cc1NS(=O)(=O)N(C)C1CCNCC1` [Example 179, N-Methyl-N-(piperidin-4-yl)({2-[3-(dimethylamino)propoxy]-5-{3′-methyl-2′-oxo-2′,3′-dihydrospiro[cyclobutane-1,1′-pyrrolo[2,3-c]quinoline]-8-yl}pyridin-3-yl}amino)sulfonamide 2,2,2-trifluoroacetate]: the IC50 lay in the range of 1 to 100 nM. Regarding `COc1ncc(-c2ccc3ncc4c(c3c2)C2(CC2)C(=O)N4C)cc1CS(=O)(=O)c1ccc(C)nc1` [Example 209, 8′-(6-Methoxy-5-(((6-methylpyridin-3-yl)sulfonyl)methyl)pyridin-3-yl)-3′-methylspiro[cyclopropane-1,1′-pyrrolo[2,3-c]quinolin]-2′(3′-H)-one], the IC50 was above 100 nM.

On to `CC(C)NC1CN(c2ncc(-c3cc4c5c(cnc4cc3F)N(C)C(=O)C53CCC3)cc2NS(C)(=O)=O)C1` [Example 328, N-(5-(7′-Fluoro-3′-methyl-2′-oxo-2′,3′-dihydrospiro[cyclobutane-1,1′-pyrrolo[2,3-c]quinolin]-8′-yl)-2-(3-(isopropylamino)azetidin-1-yl)pyridin-3-yl)methanesulfonamide hydrochloride], for which the IC50 lay within 1 to 100 nM. In the case of `CN1C(=O)C2(CC2)c2c1cnc1ccc(-c3cccc4[nH]ncc34)cc21` [Example 50, 8′-(1H-indazol-4-yl)-3′-methylspiro[cyclopropane-1,1′-pyrrolo[2,3-c]quinolin]-2′(3′-H)-one], the half-inhibitory concentration (IC50) was above 100 nM.

Compound `COc1ncc(-c2ccc3ncc4c(c3c2)C2(CC2)C(=O)N4CC2COC2)cc1NS(=O)(=O)c1ccccc1` [Example 17, N-(2-Methoxy-5-(3 (oxetan-3-ylmethyl)-2′-oxo-2′,3′-dihydrospiro[cyclopropane-1,1′-pyrrolo[2,3-c]quinolin]-8′-yl)pyridin-3-yl)benzenesulfonamide] registered an IC50 above 100 nM.

Consider `CN(C)CCCOc1ncc(-c2ccc3ncc4c(c3c2)C2(CC2)C(=O)N4C)cc1NS(=O)(=O)c1ccc(Cl)nc1` [Example 105, 6-Chloro-N-(2-(3-(dimethylamino)propoxy)-5-(3′-methyl-2′-oxo-2′,3′-dihydrospiro[cyclopropane-1,1′-pyrrolo[2,3-c]quinolin]-8′-yl)pyridin-3-yl)pyridine-3-sulfonamide], for which the IC50 is 1 to 100 nM. The same measure, in the same setting: as for `CCCCN(C)S(=O)(=O)Nc1cc(-c2ccc3ncc4c(c3c2)C2(CCC2)C(=O)N4C)cnc1OCCCN(C)C` [Example 176], the figure is 1 to 100 nM. Regarding `CCc1ncc(S(=O)(=O)Nc2cc(-c3ccc4ncc5c(c4c3)C3(CCC3)C(=O)N5C)cnc2OCCNC)s1` [Example 275, 2-Ethyl-N-(5-(3′-methyl-2′-oxo-2′,3′-dihydrospiro[cyclobutane-1,1′-pyrrolo[2,3-c]quinolin]-8′-yl)-2-(2-(methylamino)ethoxy)pyridin-3-yl)thiazole-5-sulfonamide], the 50% inhibitory concentration (IC50) was 1 to 100 nM. On the same count and under the same terms, then `CN1C(=O)C2(CCC2)c2c1cnc1cc(F)c(-c3cnc(N4CC(N(C)C)C4)c(NS(=O)(=O)N4CCOCC4)c3)cc21` [Example 312, N-(2-(3-(Dimethylamino)azetidin-1-yl)-5-(7′-fluoro-3′-methyl-2′-oxo-2′,3′-dihydrospiro[cyclobutane-1,1′-pyrrolo[2,3-c]quinolin]-8′-yl)pyridin-3-yl)morpholine-4-sulfonamide hydrochloride], with 1 to 100 nM; and `CN(C)CCCOc1ncc(-c2ccc3ncc4c(c3c2)C2(CCCC2)C(=O)N4C)cc1NC(=O)c1ccccc1` [Example 7], with above 100 nM.

Compound `CN(C)CCCOc1ncc(-c2ccc3ncc4c(c3c2)C2(CCC2)C(=O)N4C)nc1NS(C)(=O)=O` [Example 263, N-(3-(3-(Dimethylamino)propoxy)-6-(3′-methyl-2′-oxo-2′,3′-dihydrospiro [cyclobutane-1,1′-pyrrolo[2,3-c]quinolin]-8′-yl)pyrazin-2-yl) methanesulfonamide] yielded an IC50 of 1 to 100 nM. On the same count and under the same terms, then `CN(C)CCCNc1ncc(-c2ccc3ncc4c(c3c2)C2(CCC2)C(=O)N4C)cc1NS(C)(=O)=O` [Example 259, N-(2-((3-(Dimethylamino)propyl)amino)-5-(3′-methyl-2′-oxo-2′,3′-dihydrospiro[cyclobutane-1,1′-pyrrolo[2,3-c]quinolin]-8′-yl)pyridin-3-yl)methanesulfonamide], with 1 to 100 nM.

Staying with this test, now noted: pKAP1 in etoposide-treated MCF-7 cells.
`COc1cccc(N2CC3(C2)C(=O)N(C)c2cnc4cc(F)c(-c5cnc(OCCNC(C)C)c(NS(C)(=O)=O)c5)cc4c23)c1` [Example 534, N-(5-(7′-Fluoro-1-(3-methoxyphenyl)-3′-methyl-2′-oxo-2′,3′-dihydrospiro [azetidine-3,1′-pyrrolo[2,3-c]quinolin]-8′-yl)-2-(2-(isopropylamino)ethoxy)pyridin-3-yl)methanesulfonamide] displayed an IC50 of 1 to 100 nM. On the same count and under the same terms, then `CCC(CC)N1CC2(C1)C(=O)N(C)c1cnc3cc(F)c(-c4cnc(OCCNC(C)C)c(NS(C)(=O)=O)c4)cc3c12` [Example 490, N-(5-(7′-Fluoro-3′-methyl-2′-oxo-1-(pentan-3-yl)-2′,3′-dihydrospiro[azetidine-3,1′-pyrrolo[2,3-c]quinolin]-8′-yl)-2-(2-(isopropylamino)ethoxy)pyridin-3-yl)methanesulfonamide], with 1 to 100 nM; and `Cc1cc(S(=O)(=O)Nc2cc(-c3cc4c5c(cnc4cc3F)N(C)C(=O)C53CN(c4ccccc4)C3)cnc2OCCNC(C)C)sn1` [Example 521], with 1 to 100 nM; and `CC(C)NCCOc1ncc(-c2cc3c(cc2F)ncc2c3[C@]3(C[C@@H](N(C)c4ccccc4)C3)C(=O)N2C)cc1NS(C)(=O)=O` [Example 464, trans-N-{5-(7′-Fluoro-3′-methyl-3-(methyl(phenyl)amino)-2′-oxo-2′,3′-dihydrospiro[cyclobutane-1,1′-pyrrolo[2,3-c]quinolin]-8′-yl)-2-(2-(isopropylamino)ethoxy)pyridin-3-yl)methanesulfonamide], with above 100 nM.

Compound `CC(C)NCCOc1ncc(-c2cc3c(cc2F)ncc2c3[C@]3(C[C@H](N4CCCCC4)C3)C(=O)N2C)cc1NS(C)(=O)=O` [Example 469, cis-N-(5-(7′-Fluoro-3′-methyl-2′-oxo-3-(piperidin-1-yl)-2′,3′-dihydrospiro[cyclobutane-1,1′-pyrrolo[2,3-c]quinolin]-8′-yl)-2-(2-(isopropylamino)ethoxy)pyridin-3-yl)methanesulfonamide] had a 50% inhibitory concentration (IC50) of 1 to 100 nM. On the same count and under the same terms, then `CC(C)NCCOc1ncc(-c2cc3c(cc2F)ncc2c3[C@]3(C[C@@H](c4cc[nH]c(=O)c4)C3)C(=O)N2C)cc1NS(C)(=O)=O` [Example 445, trans-N-(5-(7′-Fluoro-3′-methyl-2′-oxo-3-(2-oxo-l,2-dihydropyridin-4-yl)-2′,3′-dihydrospiro[cyclobutane-1,1′-pyrrolo[2,3-c]quinolin]-8′-yl)-2-(2-(isopropylamino)ethoxy)pyridin-3-yl)methanesulfonamide], with above 100 nM; and `CN1C(=O)C2(CCC2)c2c1cnc1cc(F)c(-c3cnc(N4CC(CN5CCOCC5)C4)c(NS(C)(=O)=O)c3)cc21` [Example 344, N-(5-(7′-Fluoro-3′-methyl-2′-oxo-2′,3′-dihydrospiro[cyclobutane-1,1′-pyrrolo[2,3-c]quinolin]-8′-yl)-2-(3-(morpholinomethyl)azetidin-1-yl)pyridin-3-yl)methanesulfonamideformate], with above 100 nM.

In turn, `CCOC[C@H]1C[C@@]2(C1)C(=O)N(C)c1cnc3cc(F)c(-c4cnc(OCCNC(C)C)c(NS(C)(=O)=O)c4)cc3c12` [Example 407, trans-N-(5-(3-(Ethoxymethyl)-7′-fluoro-3′-methyl-2′-oxo-2′,3′-dihydrospiro[cyclobutane-1,1′-pyrrolo[2,3-c]quinolin]-8′-yl)-2-(2-(isopropylamino)ethoxy)pyridin-3-yl)methanesulfonamide] displayed a concentration for half-maximal inhibition (IC50) of 1 to 100 nM. On the same count and under the same terms, as for `CC(C)NCCOc1ncc(-c2cc3c4c(cnc3cc2F)N(C)C(=O)C42CN(S(=O)(=O)c3ccccc3)C2)cc1NS(C)(=O)=O` [Example 515], the figure is above 100 nM. On the same count and under the same terms, then `CC(C)NCCOc1ncc(-c2cc3c4c(cnc3cc2F)N(C)C(=O)C42CN(C3CCCCC3)C2)cc1NS(C)(=O)=O` [Example 499, N-(5-(1-Cyclohexyl-7′-fluoro-3′-methyl-2′-oxo-2′,3′-dihydrospiro[azetidine-3,1′-pyrrolo[2,3-c]quinolin]-8′-yl)-2-(2-(isopropylamino)ethoxy)pyridin-3-yl)methanesulfonamide], with 1 to 100 nM. Same read-out and setting: as for `COC[C@H]1C[C@@]2(C1)C(=O)N(C)c1cnc3cc(F)c(-c4cnc(OCCNC(C)C)c(NS(C)(=O)=O)c4)cc3c12` [Example 405, trans-N-(5-(7′-Fluoro-3-(methoxymethyl)-3′-methyl-2′-oxo-2′,3′-dihydrospiro[cyclobutane-1,1′-pyrrolo[2,3-c]quinolin]-8′-yl)-2-(2-(isopropylamino)ethoxy)pyridin-3-yl)methanesulfonamide], the figure is 1 to 100 nM.

The compound `CC(C)NCCOc1ncc(-c2cc3c(cc2F)ncc2c3[C@]3(C[C@@H](OC(C)C)C3)C(=O)N2C)cc1NS(C)(=O)=O` [Example 396, trans-N-(5-(7′-Fluoro-3-isopropoxy-3′-methyl-2′-oxo-2′,3′-dihydrospiro[cyclobutane-1,1′-pyrrolo[2,3-c]quinolin]-8′-yl)-2-(2-(isopropylamino)ethoxy)pyridin-3-yl)methanesulfonamide] returned an IC50 of 1 to 100 nM. The same measure, in the same setting: then `CN1C(=O)C2(CCC2)c2c1cnc1cc(F)c(-c3cnc(OCCNC4CCC4)c(NS(C)(=O)=O)c3)cc21` [Example 377, N-(2-(2-(Cyclobutylamino)ethoxy)-5-(7′-fluoro-3′-methyl-2′-oxo-2′,3′-dihydrospiro[cyclobutane-1,1′-pyrrolo[2,3-c]quinolin]-8′-yl)pyridin-3-yl)methanesulfonamide], with above 100 nM.
